# Data reported in the supplement of paper PMC13380429.
# Tests used:
# Details in all cases: 72 h
# Calu-3 [1] = experiment: cell viability relative to DMSO; higher = less toxic
# HepG2 [2] = experiment: as above
# U2OS [3] = experiment: as above
# Vero E6 [4] = experiment: as above
# Calu-3 [5] = experiment: relative viability EC50 (midpoint between 100% and the lowest measured viability); higher = less toxic
# HepG2 [6] = experiment: as above
# U2OS [7] = experiment: as above
# Vero E6 [8] = experiment: as above
# Calu-3 [9] = experiment: drug sensitivity score (DSS) for viability; higher = more toxic; extreme values may be limits of the assay
# HepG2 [10] = experiment: as above
# U2OS [11] = experiment: as above
# Vero E6 [12] = experiment: as above
# Caco-2 [13] = experiment: cell viability relative to DMSO; higher = less toxic
# Caco-2 [14] = experiment: relative viability EC50 (midpoint between 100% and the lowest measured viability); higher = less toxic
# Caco-2 [15] = experiment: drug sensitivity score (DSS) for viability; higher = more toxic; extreme values may be limits of the assay
SMILES,cell viability (Calu-3 [1]; 1 nM) [%],cell viability (Calu-3 [1]; 10 nM) [%],cell viability (Calu-3 [1]; 100 nM) [%],cell viability (Calu-3 [1]; 1000 nM) [%],cell viability (Calu-3 [1]; 10000 nM) [%],cell viability (HepG2 [2]; 1 nM) [%],cell viability (HepG2 [2]; 10 nM) [%],cell viability (HepG2 [2]; 100 nM) [%],cell viability (HepG2 [2]; 1000 nM) [%],cell viability (HepG2 [2]; 10000 nM) [%],cell viability (U2OS [3]; 1 nM) [%],cell viability (U2OS [3]; 10 nM) [%],cell viability (U2OS [3]; 100 nM) [%],cell viability (U2OS [3]; 1000 nM) [%],cell viability (U2OS [3]; 10000 nM) [%],cell viability (Vero E6 [4]; 1 nM) [%],cell viability (Vero E6 [4]; 10 nM) [%],cell viability (Vero E6 [4]; 100 nM) [%],cell viability (Vero E6 [4]; 1000 nM) [%],cell viability (Vero E6 [4]; 10000 nM) [%],relative viability EC50 (Calu-3 [5]) [µM],relative viability EC50 (HepG2 [6]) [µM],relative viability EC50 (U2OS [7]) [µM],relative viability EC50 (Vero E6 [8]) [µM],drug sensitivity score (Calu-3 [9]),drug sensitivity score (HepG2 [10]),drug sensitivity score (U2OS [11]),drug sensitivity score (Vero E6 [12]),cell viability (Caco-2 [13]; 1 nM) [%],cell viability (Caco-2 [13]; 10 nM) [%],cell viability (Caco-2 [13]; 100 nM) [%],cell viability (Caco-2 [13]; 1000 nM) [%],cell viability (Caco-2 [13]; 10000 nM) [%],relative viability EC50 (Caco-2 [14]) [µM],drug sensitivity score (Caco-2 [15])
O=C(c1ccccn1)c1cnn2c(-c3ccncc3)ccnc12 [ocinaplon],98.7,93.6,104,95.7,107,108,98.7,107,93.5,95.1,94,103,99.2,102,99.2,104,99.2,100,102,102,> 10,> 10,> 10,> 10,0,0,0,0,,,,,,,
Cc1cc(CCCOc2c(C)cc(-c3noc(C(F)(F)F)n3)cc2C)on1 [pleconaril],97.8,93.7,96,90.3,93.9,98.6,94.2,102,103,112,,,,,,94.2,96.8,91.6,92.5,98,> 10,> 10,,> 10,0,0,,0,96.6,102,103,102,105,> 10,0
CC(=O)Nc1ccc(OCC(O)CNC(C)C)cc1 (stereo not drawn) [practolol],108,114,111,100,99.7,94.1,105,97.3,109,87.3,,,,,,110,102,106,106,93.7,> 10,> 10,,> 10,0,0,,0,107,93.5,81.2,91.7,92,> 10,0.4
CCCN(CCC)C(=O)C(CCC(=O)O)NC(=O)c1ccccc1 (stereo not drawn) [proglumide],100,113,104,89.9,96.2,98,104,107,109,106,,,,,,104,100,98.8,97.8,107,> 10,> 10,,> 10,0,0,,0,102,105,95.7,104,102,> 10,0
c1ccc2c(c1)CCCC2C1=NCCN1 (stereo not drawn) [tetrahydrozoline],109,97.9,112,110,99.5,93,104,91.2,100,104,,,,,,68.7,103,61.2,108,68.4,> 10,> 10,,,0,0,,0.7,105,101,99,92.5,106,> 10,0
COc1cc2ncc(-c3ccccc3)nc2cc1OC [tyrphostin-AG-1296],102,86.2,91.3,84.8,100,107,108,98.1,106,95.8,,,,,,95.4,99.8,96.3,98,99.5,> 10,> 10,,> 10,0,0,,0,92.7,104,91.6,96.2,95.4,> 10,0
C[C@]1(c2nc3c(C(N)=O)cccc3[nH]2)CCCN1 [veliparib],105,100,100,111,92.1,105,107,106,96.1,101,96.7,104,96.8,106,96.6,,,,,,> 10,> 10,> 10,,0,0,0,,,,,,,,
